Measurements from US20210196747A1, “METABOLISM IMPROVING AGENT” (University of the Ryukyus, priority 2018, published 2021).

Test system: model rat of the present invention (13LK freely fed)
Test: Alkalizing agent (citrate or sodium bicarbonate) given to the 13LK-fed model rat: urine pH and urinary corticosterone excretion (Example 3)
Assay type: in vivo
Conditions: 13LK model rat, 1 week, n = 8; for Urine pH: 13LK control 5.7 ± 0.2; for Urine corticosterone: 13LK control 486 ± 115
Experimental: Citrate or sodium bicarbonate was administered as an alkalizing agent using the model rat of the present invention prepared in Example 1 (13LK was freely fed as a feed for one week), and the results of confirming urine pH and urinary glucocorticoid (corticosterone) excretion are shown in Table 3. Urine pH increased and corticosterone excretion decreased in both the citrate administration group and the sodium bicarbonate administration group as compared to the control group.

SMILES: O=C([O-])O.[Na+] [NaHCO3, sodium bicarbonate]
- Urine pH: 6.8 ± 0.6
- Urine pH (listed as sodium bicarbonate): increased
- Urine corticosterone: 309 ± 116 ng/day
- Urine corticosterone (listed as sodium bicarbonate): decreased
